{
  "source": "paper PMC12024912",
  "about": "“Druggability Studies of Benzene Sulfonamide Substituted Diarylamide (E3) as a Novel Diuretic” (Biomedicines, 2025)",
  "key": {"UT-B": {"molecular_target": "T1, UT-B (Mus musculus, UniProt Q8VHL0)", "T1 construct": "endogenous in cells; host or cells: erythrocytes from wild-type C57BL/6 mice", "T1 sequence (Q8VHL0 1-384)": "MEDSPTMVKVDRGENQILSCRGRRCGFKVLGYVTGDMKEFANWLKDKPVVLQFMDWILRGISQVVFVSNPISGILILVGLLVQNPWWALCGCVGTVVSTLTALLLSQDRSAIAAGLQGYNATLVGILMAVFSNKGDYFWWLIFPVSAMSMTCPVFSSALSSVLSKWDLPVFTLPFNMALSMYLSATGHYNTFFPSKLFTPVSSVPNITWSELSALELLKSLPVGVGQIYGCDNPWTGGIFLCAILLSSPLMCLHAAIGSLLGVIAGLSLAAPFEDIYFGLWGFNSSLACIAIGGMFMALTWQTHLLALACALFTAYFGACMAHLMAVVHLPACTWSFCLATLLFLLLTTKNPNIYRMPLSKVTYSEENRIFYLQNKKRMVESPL", "assay": "Erythrocyte lysis assay for UT-B inhibition, mouse erythrocytes", "format": "cell-based", "protocol": "The erythrocyte lysis assay was modified from a method described previously. Erythrocytes obtained from veins were diluted to a hematocrit value of 2% in hyperosmolar PBS containing 1.25 mol/L urea and 5 mmol/L glucose and incubated at r.t. for 2 h. Then, 99 μL erythrocyte suspension from a reservoir was added to each well of a 96-well round-bottom microplate, then 1 μL of the testing compound (500, 125, 31.25, 7.81, 1.95, 0.488, 0.122, 0.031, 0.0076 μmol/L dissolved in DMSO) was added to erythrocyte suspension and shook it up with microoscillator for 1 min. Following 5 min incubation, 20 μL erythrocyte suspension was transferred into 96-well black microplates preloaded with 180 μL isotonic PBS (10 mM, urea-free). Erythrocyte lysis was monitored at 710 nm optical density (OD710) for 6 min, with lysis rates calculated using control values from the same plate as Equation (1):Lysis (%) = 100 × (Aneg − Atest)/(Aneg − Apos)(1) where Atest is the absorbance value from the test well, Aneg is from a negative no-lysis control well, and Apos is from a positive full-lysis control."}, "SD rats": {"test_system": "SD rats", "assay": "Diuretic effect of single intragastric administration in rats (metabolic cages)", "format": "in vivo, rat", "protocol": "(§1) In a single-dose administration experiment, male wild-type (WT) mice, UT-B^-/- mice, UT-A1^-/- mice, or SD rats were adapted in metabolic cages for 3 d. Food and water were provided ad libitum throughout the experiment. Prior to administration, the bladder of each animal was emptied through gentle abdominal massage, and urine was collected from the metabolic cages every 2 h. Compound E3, suspended in 0.5% CMC-Na at an appropriate concentration, was administered intragastric gavage to the mice or rats (0.16, 0.8, 4, or 20 mg/kg). Vehicle control comprised 0.5% (w/v) CMC-Na. Urinary parameters were determined through the following: volume: Gravimetric analysis (1 g/mL density assumption); osmolality: freezing-point osmometry (Micro-osmometer, […] Associates, Norwood, MA, USA); and urea: diacetyl oxime colorimetry (QuantiChrom® kit, Elabscience, Wuhan, China). In long-term (7 d) diuretic activity experiments, male WT mice, UT-B^-/- mice, UT-A1^-/- mice, and SD rats were acclimatized in metabolic cages (Ugo Basile, Comerio, VA, Italy) for 3 d. Food and water were provided ad libitum throughout the experiment. E3 was suspended in 0.5% CMC-Na and administered at a dose of 4 or 20 mg/kg by intragastric gavage. Urine was collected by metabolic cages every 24 h. Body weight was measured daily. At 4 h after the final administration, a blood sample was obtained by heart puncture. Inner medulla and outer medulla tissue homogenates were prepared, and the supernatant after centrifugation was analyzed for solute concentration and osmolality. Urinary osmolality and urea concentration were measured as above. Serum Na^+, K^+, and Cl^- were measured in a clinical chemistry laboratory, while serum creatinine, ALT, and AST were measured through specific reagent kits (NJJC Bio, Nanjing, China)."}, "Blood stability, mouse": {"assay": "Blood stability, mouse", "format": "in vitro ADME", "details": "plasma, n=3", "protocol": "Plasma from mice, rats, rabbits, and humans was obtained from blood after centrifugation at 3000 r/min for 10 min. Simulated gastric fluid (SGF, pH = 1, containing pepsin) and simulated intestinal fluid (SIF, pH = 6.8, containing trypsin) were configured previously in the experiments. SD rats and mice were collected, and after removing the mucus layer from the small intestine and colon, 20 times the volume of liquid bacterial culture medium was added. An intestinal microbiota suspension was obtained after anaerobic cultivation on a shaking table at 37 °C for 12 h. In the aforementioned systems, E3 was added at a final concentration of 1 μmol/L at 37 °C for different incubation times (0, 10, 20, 30, 60, 120, and 240 min). In liver metabolic stability assays, E3 was incubated with liver microsomes or liver homogenate from mice or rats for 60 min at 37 °C. The stop solution, 5 ng/mL tolbutamide (internal standard, IS) in acetonitrile, was added to stop the metabolic process. Post-centrifugation (18,000× g, 10 min, 4 °C), supernatants were subjected to liquid chromatography–tandem mass spectrometry (LC–MS/MS). Analyte-to-IS peak area ratios quantified residual percentages via Equation (2):Remaining% = (E3peak area/ISpeak area at different time)/(E3peak area/ISpeak area at 0 min) × 100%.(2)"}, "mice": {"test_system": "mice", "assay": "Diuretic effect of single intragastric administration in mice (metabolic cages)", "format": "in vivo, mouse", "protocol": "as §1"}, "[1]": {"details": "UT-A1−/− mice, 20 mg/kg single dose"}, "[2]": {"details": "UT-B−/− mice, 20 mg/kg single dose"}, "[3]": {"details": "mice, single intragastric gavage"}},
  "note": "Like-named read-outs stand apart in the source and are kept apart here.",
  "data": [
    {"smiles": "CC(=O)c1ccc(C(=O)Nc2cccc(NS(=O)(=O)c3ccccc3)c2)o1", "note": "[Compound E3, 5-acetyl-N-(3-(phenylsulfonamido)phenyl)furan-2-carboxamide]", "values": [
      {"measurement": "maximum inhibition rate, mouse cells", "setting": "UT-B; erythrocyte lysis assay", "value": "approximately 100%"},
      {"measurement": "IC50", "setting": "UT-B; erythrocyte lysis model, mouse, n = 3, means, read-out: IC50 (μM) Mouse", "value": 0.05, "unit": "µM"},
      {"measurement": "IC50", "setting": "UT-B; red blood cell lysis assay, read-out: IC50 for UT-B-promoted urea transport, mice", "value": 0.0477, "unit": "µM"},
      {"measurement": "urinary osmolality", "setting": "SD rats; single intragastric gavage", "value": "decreased"},
      {"measurement": "urinary urea", "setting": "SD rats; single intragastric gavage", "value": "decreased"},
      {"measurement": "urine output", "setting": "SD rats; single intragastric gavage 0.16-20 mg/kg, vs vehicle", "value": "significantly increased"},
      {"measurement": "excretion of non-urea solutes", "setting": "SD rats; single intragastric gavage, vs control", "value": "not significantly different"},
      {"measurement": "remaining at 1 μmol/L", "setting": "Blood stability, mouse", "value": 45.3, "unit": "%"},
      {"measurement": "excretion of non-urea solutes", "setting": "mice; [1]", "value": "not significantly changed"},
      {"measurement": "urea concentration (urine)", "setting": "mice; [1]", "value": "no significant change"},
      {"measurement": "urinary osmolality", "setting": "mice; [1]", "value": "no significant change"},
      {"measurement": "urine output", "setting": "mice; [1]", "value": "no significant change"},
      {"measurement": "excretion of non-urea solutes", "setting": "mice; [2]", "value": "not significantly changed"},
      {"measurement": "urinary osmolality", "setting": "mice; [2]", "value": "decreased correspondingly"},
      {"measurement": "urinary urea", "setting": "mice; [2]", "value": "decreased correspondingly"},
      {"measurement": "urine output", "setting": "mice; UT-B−/− mice, 20 mg/kg single dose, 2 h post administration", "value": "markedly increased"},
      {"measurement": "urinary osmolality", "setting": "mice; [3]", "value": "decreased"},
      {"measurement": "urinary urea", "setting": "mice; [3]", "value": "decreased"},
      {"measurement": "urine output", "setting": "mice; mice, single intragastric gavage 0.16-20 mg/kg, vs vehicle", "value": "significantly increased"},
      {"measurement": "excretion of non-urea solutes", "setting": "mice; mice, single intragastric gavage, vs control", "value": "not significantly different"}
    ]}
  ]
}
